The subject of one assay is GM3. Nature of the assay: GM3 Elisa assay. The following applies: 48 h, Table 1; B16-FO cells, 2 days with compound; read-out: IC50_uM_Mean. It is filed as cell-based. As for the experimental part: B16-FO cells from ATCC (American Tissue Culture Collection) were grown in DMEM media (ATCC) with 10% Fetal Bovine Serum (Hyclone) and Pen/Step/Glutamine (Biowhittaker). 4000 cells per well were plated on collagen coated plates (BD) and allowed to attach for 6 hours in an incubator (37 degrees, 5% CO2). After 6 hours the compounds and controls were added to the wells, the plates mixed and returned to the incubator for 2 days. Day of assay the cells were fixed for 20 minutes with 1% formaldehyde and then washed with Tris Buffered Saline (TBS) 3 times, 150 μl of TBS was left in the wells and 50 μl of goat serum (Invitrogen) was added, the plates mixed and incubated for 1 hour at room temperature. The plates were flicked and the cells incubated with the monoclonal Antibody to GM3 (NeuAc) (Cosmo) for 45 minutes as room temperature. The plates were then washed 3 times with TBS, leaving 150 μl of TBS in the wells and Peroxidase AffinPure F (ab′) 2 frag Gt Anti-mouse IgM, μ Chain Specific (Jackson Immuno Research) was added in 50 μl, the plates mixed and incubated for 45 minutes at room temperature. The plates were washed 3 times with TBS, flicked and blotted and 100 μl of Quantablu (Pierce) was added to the wells and incubated for 1 hour then read on a Fluorometer at Ex 325 and Em 420. The data was then analyzed using standard programs.
In the case of `COc1ccc(OCCC(=O)N[C@H](CN2CCCC2)[C@H](O)c2ccc3c(c2)OCCO3)cc1` [Compound 61, N-((1R,2R)-1-(2,3-dihydrobenzo[β][1,4]dioxin-6-yl)-1-hydroxy-3-(pyrrolidin-1-yl)propan-2-yl)-3-(4-methoxyphenoxy)propanamide], the IC50 was not above 100 nM.
Turning to `COc1cccc(CNC(=O)N[C@H](CN2CCCC2)[C@H](O)c2ccc3c(c2)OCCO3)c1` [Compound 80, 1-((1R,2R)-1-(2,3-dihydrobenzo[β][1,4]dioxin-6-yl)-1-hydroxy-3-(pyrrolidin-1-yl)propan-2-yl)-3-(3-methoxybenzyl)urea], the IC50 was not above 100 nM.
Regarding `O=C(CCCc1nc2ccccc2s1)N[C@H](CN1CCCC1)[C@H](O)c1ccc2c(c1)OCCO2` [Compound 101, 4-(benzo[d]thiazol-2-yl)-N-((1R,2R)-1-(2,3-dihydrobenzo[1,4]dioxin-6-yl)-1-hydroxy-3-(pyrrolidin-1-yl)propan-2-yl)butanamide], the IC50 is not above 100 nM.
The same measure, in the same setting: the result for `CC(C)(C)c1ccc(C(=O)CCCCCC(=O)N[C@H](CN2CCCC2)[C@H](O)c2ccc3c(c2)OCCO3)cc1` [Compound 160, 7-(4-tert-butylphenyl)-N((1R,2R)-1-(2,3-dihydrobenzo[β][1,4]dioxin-6-yl)-1-hydroxy-3-(pyrrolidin-1-yl)propan-2-yl)-7-oxoheptanamide] reads 100 to 1000 nM.
The same measure, in the same setting: the value for `CC(C)Oc1ccc(C(=O)CCC(=O)N[C@H](CN2CCCC2)[C@H](O)c2ccc3c(c2)OCCO3)cc1` [Compound 162, N-((1R,2R)-1-(2,3-dihydrobenzo[β][1,4]dioxin-6-yl)-1-hydroxy-3-(pyrrolidin-1-yl)propan-2-yl)-4-(4-isopropoxyphenyl)-4-oxobutanamide] was not above 100 nM; that for `O=C(CCC(=O)c1ccc(C(F)(F)F)cc1)N[C@H](CN1CCCC1)[C@H](O)c1ccc2c(c1)OCCO2` [Compound 176, N-((1R,2R)-1-(2,3-dihydrobenzo[β][1,4]dioxin-6-yl)-1-hydroxy-3-(pyrrolidin-1-yl)propan-2-yl)-4-oxo-4-(4-(trifluoromethyl)phenyl)butanamide (2S,3S)-2,3-dihydroxysuccinate] was not above 100 nM; that for `CCc1ccc(OCCC(=O)N[C@H](CN2CCCC2)[C@H](O)c2ccc3c(c2)OCCO3)cc1` [Compound 188, N-((1R,2R)-1-(2,3-dihydrobenzo[b][1,4]dioxin-6-yl)-1-hydroxy-3-(pyrrolidin-1-yl)propan-2-yl)-3-(4-ethylphenoxy)propanamide (2R,3R)-2,3-dihydroxysuccinate] was 100 to 1000 nM.
Regarding `CCC(=O)c1ccc(OCCC(=O)N[C@H](CN2CCCC2)[C@H](O)c2ccc3c(c2)OCCO3)cc1` [Compound 189, N-((1R,2R)-1-(2,3-dihydrobenzo[b][1,4]dioxin-6-yl)-1-hydroxy-3-(pyrrolidin-1-yl)propan-2-yl)-3-(4-propionylphenoxy)propanamide (2R,3R)-2,3-dihydroxysuccinate], the IC50 lay in the range of 100 to 1000 nM.

Still in this assay, the particulars now being: Table 3 (title: IC 50 Values); read-out: IC50_uM_Mean.
Consider `CCNC[C@@H](NC(=O)CCCCCC(=O)c1ccc(OC)cc1)C(O)c1ccc2c(c1)OCCO2` (stereo partly shown) [Compound 467], for which the IC50 was 100 to 1000 nM.
Same read-out and setting: the result for `O=C(Cc1ccc(OC(F)(F)F)cc1)N[C@H](CN1CCCC1)[C@H](O)c1ccc(Cl)s1` [Compound 492] reads 3000 to 10000 nM; that for `CCCCCCCC(=O)N[C@H](CN1CC[C@@H](F)C1)[C@H](O)c1ccc2c(c1)OCCO2` [Compound 504], 100 to 1000 nM; that for `CCCCCCCC(=O)N[C@H](CN1CC[C@H](F)C1)[C@H](O)c1ccc2c(c1)OCCO2` [Compound 510], 3000 to 10000 nM.
The same measure, in the same setting: the value for `CCCCCCCC(=O)N[C@H](CN1CC[C@@H](O)C1)[C@@H](O)c1ccc2c(c1)OCCO2` [Compound 512] was 1000 to 3000 nM; that for `CCCCCCCC(=O)N[C@H](CN1CC[C@H](O)C1)[C@@H](O)c1ccc2c(c1)OCCO2` [Compound 515] was not above 100 nM.
The same measure, in the same setting: the result for `CCCCCCCC(=O)N[C@H](CN1CC2CC2C1)[C@@H](O)c1ccc2c(c1)OCCO2` (stereo partly shown) [Compound 517] reads 100 to 1000 nM; that for `COc1ccc(C(=O)CCOCCC(=O)N[C@H](CN2CC[C@@H](O)C2)[C@H](O)c2ccc3c(c2)OCCO3)cc1` [Compound 518], 100 to 1000 nM.
As for `COc1ccc(C(=O)CCCCCC(=O)N[C@H](CN2CCC[C@@H]2C)C(O)c2ccc3c(c2)OCCO3)cc1` (stereo partly shown) [Compound 525], the IC50 was not above 100 nM.
As to `COc1ccc(OCCC(=O)N[C@H](CN2CCC[C@@H]2C)C(O)c2ccc3c(c2)OCCO3)cc1` (stereo partly shown) [Compound 526], the IC50 was 100 to 1000 nM.
The same measure, in the same setting: the value for `CCCCCCCC(=O)N[C@H](CN1CCC[C@@H]1C)C(O)c1ccc2c(c1)OCCO2` (stereo partly shown) [Compound 527] was 1000 to 3000 nM; that for `COc1ccc(OCCC(=O)N[C@H](CN2CCC[C@H]2C)C(O)c2ccc3c(c2)OCCO3)cc1` (stereo partly shown) [Compound 528] was 1000 to 3000 nM.
The same measure, in the same setting: the result for `COc1ccc(C(=O)CCCCCC(=O)N[C@H](CN2CCC[C@H]2C)C(O)c2ccc3c(c2)OCCO3)cc1` (stereo partly shown) [Compound 529] reads not above 100 nM; that for `CCCCCCCC(=O)N[C@H](CN1CCC[C@H]1C)C(O)c1ccc2c(c1)OCCO2` (stereo partly shown) [Compound 530], 3000 to 10000 nM; that for `COc1ccc(C(=O)CCCCCC(=O)NC(CN2CC[C@@H](F)C2)[C@H](O)c2ccc3c(c2)OCCO3)cc1` (stereo partly shown) [Compound 531], not above 100 nM.
On the same count and under the same terms, the value for `COC[C@@H]1CCCN1C[C@@H](NC(=O)CCCCCC(=O)c1ccc(OC)cc1)C(O)c1ccc2c(c1)OCCO2` (stereo partly shown) [Compound 533] was 100 to 1000 nM.
Consider `CCCCCCCC(=O)N[C@H](CN1CCC[C@H]1COC)C(O)c1ccc2c(c1)OCCO2` (stereo partly shown) [Compound 534], for which the IC50 fell in the range of 3000 to 10000 nM.
Same read-out and setting: the result for `COC[C@@H]1CCCN1C[C@@H](NC(=O)CCOc1ccc(OC)cc1)C(O)c1ccc2c(c1)OCCO2` (stereo partly shown) [Compound 535] reads 3000 to 10000 nM; that for `COc1ccc(C(=O)CCCCCC(=O)N[C@H](CN2CC3CC3C2)[C@@H](O)c2ccc3c(c2)OCCO3)cc1` (stereo partly shown) [Compound 537], not above 100 nM.
As to `COC[C@H]1CCCN1C[C@@H](NC(=O)CCOc1ccc(OC)cc1)[C@@H](O)c1ccc2c(c1)OCCO2` [Compound 538], the IC50 was in the range of 3000 to 10000 nM.
On the same count and under the same terms, the value for `COC[C@H]1CCCN1C[C@@H](NC(=O)CCCCCC(=O)c1ccc(OC)cc1)[C@@H](O)c1ccc2c(c1)OCCO2` [Compound 539] was 3000 to 10000 nM.
As for `CCCCCCCC(=O)N[C@H](CN1CCC[C@@H]1COC)[C@@H](O)c1ccc2c(c1)OCCO2` [Compound 540], the IC50 was 3000 to 10000 nM.
On the same count and under the same terms, the result for `COc1ccc(C(=O)CCCCCC(=O)N[C@H](CN2[C@H](C)CC[C@@H]2C)[C@H](O)c2ccc3c(c2)OCCO3)cc1` [Compound 548] reads 1000 to 3000 nM.
Regarding `CCCCCCCC(=O)N[C@H](CN1[C@H](C)CC[C@@H]1C)[C@H](O)c1ccc2c(c1)OCCO2` [Compound 549], the IC50 was in the range of 3000 to 10000 nM.
On the same count and under the same terms, the value for `COc1ccc(OCCC(=O)N[C@H](CN2[C@H](C)CC[C@@H]2C)[C@H](O)c2ccc3c(c2)OCCO3)cc1` [Compound 550] was 3000 to 10000 nM; that for `COc1ccc(OCCC(=O)N[C@H](CN2CCCC2(C)C)[C@@H](O)c2ccc3c(c2)OCCO3)cc1` [Compound 551] was 3000 to 10000 nM; that for `COc1ccc(C(=O)CCCCCC(=O)N[C@H](CN2CCCC2(C)C)[C@@H](O)c2ccc3c(c2)OCCO3)cc1` [Compound 552] was 1000 to 3000 nM.
The same measure, in the same setting: the result for `CCCCCCCC(=O)N[C@H](CN1CCCC1(C)C)[C@@H](O)c1ccc2c(c1)OCCO2` [Compound 553] reads 3000 to 10000 nM.
`O=C(CCCCS(=O)(=O)C1CCCCC1)N[C@H](CN1CCCC1)[C@@H](O)c1ccc2c(c1)OCCO2` [Compound 557]: the IC50 was 3000 to 10000 nM.
The same measure, in the same setting: the value for `O=C(CCCCCC1CCOCC1)N[C@H](CN1CCCC1)[C@@H](O)c1ccc2c(c1)OCCO2` [Compound 559] was 100 to 1000 nM; that for `O=C(CCCCCC(=O)c1ccc(F)cc1)N[C@H](CN1CC[C@@H](F)C1)[C@@H](O)c1ccc2c(c1)OCCO2` [Compound 565] was not above 100 nM.
The same measure, in the same setting: the value for `Cc1nccn1C[C@@H](NC(=O)CCCCCC(=O)c1ccc(F)cc1)[C@@H](O)c1ccc2c(c1)OCCO2` [Compound 569] was 3000 to 10000 nM.
Same read-out and setting: the result for `O=C(CCCCS(=O)(=O)C1CCCCC1)N[C@H](CN1CC[C@@H](F)C1)[C@@H](O)c1ccc(OCc2ccccc2)cc1` [Compound 572] reads 100 to 1000 nM; that for `O=C(CCCCCC1CCOCC1)N[C@H](CN1CC[C@@H](F)C1)[C@@H](O)c1cccc(OCc2ccccc2)c1` [Compound 574], 100 to 1000 nM.
Regarding `O=C(CCCCOC1CCOCC1)N[C@H](CN1CC[C@@H](F)C1)[C@@H](O)c1ccc(CCc2ccccc2)cc1` [Compound 575], the IC50 lay in the range of 100 to 1000 nM.
On the same count and under the same terms, the result for `CCCCOc1ccc([C@H](O)[C@@H](CN2CC[C@@H](F)C2)NC(=O)CCCCCCCOC)cc1` [Compound 584] reads 100 to 1000 nM; that for `CCCCOc1ccc([C@H](O)[C@@H](CN2CC[C@H](O)C2)NC(=O)CCCCCCCOC)cc1` [Compound 586], not above 100 nM.
Turning to `CCCCCCCC(=O)N[C@H](CN1CC(OCCC)C1)[C@H](O)c1ccc2c(c1)OCCO2` [Compound 596], the IC50 was 3000 to 10000 nM.
